Measurements: patent US8362067B2, “3-aminoalkyl-1,3-dihydro-2H-indol-2-one derivatives, preparation thereof and therapeutic use thereof” (Sanofi, priority 2008, dated 2013)
Where a name gives a salt, the structure may show the parent alone.

Structure (SMILES) | melting point [°C]
CCOc1ccc(S(=O)(=O)N2C(=O)C(CCCN3CCC(O)CC3)(c3ccccc3F)c3cc(Cl)c(OC)cc32)cc1OC (stereo not shown) | 102
CCOc1ccc(S(=O)(=O)N2C(=O)C(CCCN3CCOCC3)(c3ccccc3F)c3cc(Cl)c(OC)cc32)cc1OC (stereo not shown) | 153
COc1cc2c(cc1F)C(CCCN1CCN(C)CC1)(c1ccccc1F)C(=O)N2S(=O)(=O)c1ccc(OC(C)C)cc1 (stereo not shown) | 72
COc1cc2c(cc1OC)C(CCCN1CCN(C)CC1)(c1ccccc1F)C(=O)N2S(=O)(=O)c1ccc(OC(C)C)c(F)c1 (stereo not shown) | 74
COc1ccc(S(=O)(=O)N2C(=O)C(CCCN3CCN(C)CC3)(c3ccccc3F)c3cc(OC)c(OC)cc32)cc1C (stereo not shown) | 78
CCN(CC)C(=O)Nc1ccc(S(=O)(=O)N2C(=O)C(CCCN(C)C)(c3ccccc3F)c3cc(C)c(OC)cc32)cc1C (stereo not shown) | 98
COc1cc2c(cc1Cl)C(CCCN1CCN(C)CC1)(c1ccccc1F)C(=O)N2S(=O)(=O)c1ccc(OC(F)(F)C(F)F)cc1.Cl (stereo not shown) | 164
COc1ccc(S(=O)(=O)N2C(=O)C(CCCN3CCCCC3)(c3ccccc3F)c3cc(Cl)c(OC)cc32)c(OC)c1 (stereo not shown) | 105
CCCCOc1ccc(S(=O)(=O)N2C(=O)C(CCCN3CCN(C)CC3)(c3ccccc3F)c3cc(Cl)c(OC)cc32)cc1 (stereo not shown) (as salt: HCl) | 156
COc1cc2c(cc1Cl)C(CCCN1CCCN(C)CC1)(c1ccccc1F)C(=O)N2S(=O)(=O)c1ccc(OC(C)C)cc1 (stereo not shown) (as salt: HCl) | 202
CCOc1ccc(S(=O)(=O)N2C(=O)C(CCCN3CC[C@@H](N)C3)(c3ccccc3F)c3cc(Cl)c(OC)cc32)cc1OC (stereo partly drawn) (as salt: HCl) [Compound No. 6, 3-{3-[(3R)-3-aminopyrrolidin-1-yl]propyl}-5-chloro-1-[(4-ethoxy-3-methoxy-phenyl)sulfonyl]-3-(2-fluorophenyl)-6-methoxy-1,3-dihydro-2H-indol-2-one] | 210
COc1cccc(S(=O)(=O)N2C(=O)C(CCCN3CCN(C)CC3)(c3ccccc3F)c3cc(Cl)c(OC)cc32)c1 (stereo not shown) (as salt: HCl) [Compound No. 38] | 147
COc1ccc(S(=O)(=O)N2C(=O)C(CCCN3CCNCC3)(c3ccccc3F)c3cc(Cl)c(OC)cc32)c(OC)c1 (stereo not shown) (as salt: HCl) [compound 16, 5-chloro-1-[(2,4-dimethoxyphenyl)sulfonyl]-3-(2-fluorophenyl)-6-methoxy-3-(3-(piperazin-1-yl)propyl)-1,3-dihydro-2H-indol-2-one] | 243
COc1cc2c(cc1Cl)C(CCCN1CCNCC1)(c1ccccc1F)C(=O)N2S(=O)(=O)c1ccc(C)c(C)c1 (stereo not shown) (as salt: HCl) [compound 20, 5-chloro-1-[(3,4-dimethylphenyl)sulfonyl]-3-(2-fluorophenyl)-6-methoxy-3-(3-(piperazin-1-yl)propyl)-1,3-dihydro-2H-indol-2-one] | 192
CCOc1ccc(S(=O)(=O)N2C(=O)C(CCCN3CCNCC3)(c3ccccc3F)c3cc(Cl)c(OC)cc32)cc1 (stereo not shown) (as salt: HCl) [compound 22, 5-chloro-1-[(4-ethoxyphenyl)sulfonyl]-3-(2-fluorophenyl)-6-methoxy-3-(3-(piperazin-1-yl)propyl)-1,3-dihydro-2H-indol-2-one] | 213
COc1cc2c(cc1Cl)C(CCCN1CCNCC1)(c1ccccc1F)C(=O)N2S(=O)(=O)c1ccccc1 (stereo not shown) (as salt: HCl) [compound 26, 5-chloro-3-(2-fluorophenyl)-6-methoxy-1-(phenylsulfonyl)-3-(3-(piperazin-1-yl)propyl)-1,3-dihydro-2H-indol-2-one] | 238
COc1ccc(S(=O)(=O)N2C(=O)C(CCCN3CCNCC3)(c3ccccc3F)c3cc(F)c(OC)cc32)cc1C (stereo not shown) (as salt: HCl) [compound 107] | 152
COc1ccc(S(=O)(=O)N2C(=O)C(CCCN3CCNCC3)(c3ccccc3F)c3cc(OC)c(OC)cc32)cc1C (stereo not shown) (as salt: HCl) [compound 108] | 160
COc1ccc(S(=O)(=O)N2C(=O)C(CCCC3CCNCC3)(c3ccccc3F)c3cc(Cl)c(OC)cc32)c(OC)c1.Cl (stereo not shown) [Compound No. 1] | 163
COc1ccc(S(=O)(=O)N2C(=O)C(CCCC3CCNCC3)(c3ccccc3F)c3cc(Cl)c(OC)cc32)c(OC)c1.Cl (stereo not shown) [Compound No. 2] | 175

The remaining lines, values ahead:

melting point [°C] | Structure (SMILES)
70 | COc1cc2c(cc1C)C(CCCN1CCN(C)CC1)(c1ccccc1F)C(=O)N2S(=O)(=O)c1ccc(OC(C)C)cc1 (stereo not shown)
123 | COc1ccc(S(=O)(=O)N2C(=O)C(CCCN3CCN(C)CC3)(c3ccccc3F)c3cc(Cl)c(OC)cc32)c(OC)c1 (stereo not shown)
72 | COc1cc2c(cc1F)C(CCCN1CCN(C)CC1)(c1ccccc1F)C(=O)N2S(=O)(=O)c1ccc(OC(C)C)c(F)c1 (stereo not shown)
100 | COC(=O)c1ccc(F)c(C2(CCCN3CCN(C)CC3)C(=O)N(S(=O)(=O)c3ccc(OC(C)C)cc3)c3cc(OC)c(Cl)cc32)c1 (stereo not shown)
97 | COc1cc2c(cc1Cl)C(CCCN1CCN(C)CC1)(c1cc(CO)ccc1F)C(=O)N2S(=O)(=O)c1ccc(OC(C)C)cc1 (stereo not shown)
82 | CCN(CC)C(=O)Nc1ccc(S(=O)(=O)N2C(=O)C(CCCN(C)C)(c3ccccc3F)c3cc(C)c(OC)cc32)cc1F (stereo not shown)
90 | COc1cc2c(cc1Cl)C(CCCN1CCN(C)CC1)(c1ccccc1F)C(=O)N2S(=O)(=O)c1ccc(OC)c(OC)c1 (stereo not shown)
169 | COc1cc2c(cc1Cl)C(CCCN1CCN(C)CC1)(c1ccccc1F)C(=O)N2S(=O)(=O)c1ccc(O)cc1 (stereo not shown)
125 | COc1cc2c(cc1Cl)C(CCCCCN(C)C)(c1ccccc1F)C(=O)N2S(=O)(=O)c1ccc(OC(C)C)cc1 (stereo not shown) (as salt: HCl)
203 | COc1cc2c(cc1Cl)C(CCCCCN1CCCCC1)(c1ccccc1F)C(=O)N2S(=O)(=O)c1ccc(OC(C)C)cc1 (stereo not shown) (as salt: HCl)
206 | COc1cc2c(cc1Cl)C(CCCN1CC[C@H](N)C1)(c1ccccc1F)C(=O)N2S(=O)(=O)c1ccc(OC(C)C)cc1 (stereo partly drawn) (as salt: HCl) [Compound No. 5, 3-{3-[(3S)-3-aminopyrrolidin-1-yl]propyl}-5-chloro-3-(2-fluorophenyl)-1-[(4-isopropoxyphenyl)sulfonyl]-6-methoxy-1,3-dihydro-2H-indol-2-one]
238 | CCOc1ccc(S(=O)(=O)N2C(=O)C(CCCN3CC[C@H](N)C3)(c3ccccc3F)c3cc(Cl)c(OC)cc32)cc1OC (stereo partly drawn) (as salt: HCl) [Compound No. 7, 3-{3-[(3S)-3-aminopyrrolidin-1-yl]propyl}-5-chloro-1-[(4-ethoxy-3-methoxy-phenyl)sulfonyl]-3-(2-fluorophenyl)-6-methoxy-1,3-dihydro-2H-indol-2-one]
292 | COc1cc2c(cc1Cl)C(CCCN1CCNCC1)(c1ccccc1F)C(=O)N2S(=O)(=O)c1ccc(O)cc1 (stereo not shown) (as salt: HCl) [Compound No. 46]
220 | CCOc1ccc(S(=O)(=O)N2C(=O)C(CCCN3CCNCC3)(c3ccccc3F)c3cc(Cl)c(OC)cc32)cc1OC (stereo not shown) (as salt: HCl) [compound 18, 5-chloro-1-[(4-ethoxy-3-methoxyphenyl)sulfonyl]-3-(2-fluorophenyl)-6-methoxy-3-(3-(piperazin-1-yl)propyl)-1,3-dihydro-2H-indol-2-one]
190 | COc1cc2c(cc1Cl)C(CCCN1CCNCC1)(c1ccccc1F)C(=O)N2S(=O)(=O)c1ccc(OC)c(OC)c1 (stereo not shown) (as salt: HCl) [compound 19, 5-chloro-1-[(3,4-dimethoxyphenyl)sulfonyl]-3-(2-fluorophenyl)-6-methoxy-3-(3-(piperazin-1-yl)propyl)-1,3-dihydro-2H-indol-2-one]
234 | COc1ccc(S(=O)(=O)N2C(=O)C(CCCN3CCNCC3)(c3ccccc3F)c3cc(Cl)c(OC)cc32)cc1C (stereo not shown) (as salt: HCl) [compound 21, 5-chloro-3-(2-fluorophenyl)-6-methoxy-1-[(4-methoxy-3-methylphenyl)sulfonyl]-3-(3-(piperazin-1-yl)propyl)-1,3-dihydro-2H-indol-2-one]
226 | CCOc1ccc(S(=O)(=O)N2C(=O)C(CCCN3CCNCC3)(c3ccccc3F)c3cc(Cl)c(OC)cc32)cc1C (stereo not shown) (as salt: HCl) [compound 23, 5-chloro-1-[(4-ethoxy-3-methylphenyl)sulfonyl]-3-(2-fluorophenyl)-6-methoxy-3-(3-(piperazin-1-yl)propyl)-1,3-dihydro-2H-indol-2-one]
218 | COc1cc2c(cc1Cl)C(CCCN1CCNCC1)(c1ccccc1F)C(=O)N2S(=O)(=O)c1ccc(OC(F)F)cc1 (stereo not shown) (as salt: HCl) [compound 24, 5-chloro-1-{[4-(difluoromethoxy)phenyl]sulfonyl}-3-(2-fluorophenyl)-6-methoxy-3-(3-(piperazin-1-yl)propyl)-1,3-dihydro-2H-indol-2-one]
220 | COc1cc2c(cc1Cl)C(CCCN1CCNCC1)(c1ccccc1F)C(=O)N2S(=O)(=O)c1ccc(OC(F)(F)F)cc1 (stereo not shown) (as salt: HCl) [compound 25, 5-chloro-3-(2-fluorophenyl)-6-methoxy-3-(3-(piperazin-1-yl)propyl)-1-{[4-(tri-fluoromethoxy)phenyl]sulfonyl}-1,3-dihydro-2H-indol-2-one]
88 | CCOc1ccc(S(=O)(=O)N2C(=O)C(CCCN3CCC(F)(F)CC3)(c3ccccc3F)c3cc(Cl)c(OC)cc32)cc1OC (stereo not shown) [compound 9, 5-chloro-3-[3-(4,4-difluoropiperidin-1-yl)propyl]-1-[(4-ethoxy-3-methoxy-phenyl)sulfonyl]-3-(2-fluorophenyl)-6-methoxy-1,3-dihydro-2H-indol-2-one]
